Experimental data as given in patent US20250152496A1, “SKIN IMPROVING AGENT CONTAINING FERMENTED EXTRACT AS MAIN RAW MATERIAL” (priority 2022, published 2025).

Assays:
[1] = test system: elastase derived from human skin fibroblasts (NHDF-Ad); assay: elastase activity inhibition test (anti-wrinkle test); assay type: biochemical; conditions: 50 nM; 37° C. for 2 hours
Method: Therefore, in this example, elastase activity was evaluated by measuring an amount of nitroaniline produced using elastase derived from human skin fibroblasts (NHDF-Ad), and using N-Succinyl-Ala-Ala-Ala-β-nitroanilide as a substrate. Based on the elastase activity, a skin dermis elasticity retention and aging function (an activity inhibition rate) of the test object of rice malt lactic acid bacterium fermentation liquid SW01 (hereinafter, SW01) was examined.
The elastase activity was set to 100% using, as a control, a reaction with only elastase derived from human skin fibroblasts (NHDF-Ad) and N-Succinyl-Ala-Ala-Ala-β-nitroanilide as a substrate. Reaction conditions in this experiment were 37° C. for 2 hours.

[2] = test system: rat basophilic leukemia cell RBL-2H3; assay: degranulation inhibition: β-hexosaminidase activity of antigen-stimulated RBL-2H3 cells; assay type: cell-based; conditions: 50 µg/mL, positive control
Method: To determine an extent to which the test object inhibits degranulation, degranulation is assessed by measuring the activity of β-hexosaminidase, which is abundantly present in the granulocyte. Accordingly, the effect of the test object on allergic reaction is evaluated. It is known that rat basophilic leukemia cell RBL-2H3 releases the granulocyte containing histamine and the like to the outside of the cell when IgE bound to the cell surface is cross-linked with an antigen. This has been applied as an experimental system to exploratory research and the like as screening for substances having an anti-allergic action against type I allergy. In this example, the inhibition of degranulation is evaluated by stimulating RBL-2H3 cells with an antigen and measuring the activity of β-hexosaminidase (FIG. 4). […] Further, […] of quercetin was used as a positive control. […] By adding […] of the rice malt lactic acid bacterium fermentation liquid SW01, the activity of β-hexosaminidase was about 50%. […] Note that, the p value in FIG. 4 is p<0.01.

SMILES | elastase inhibition by standard agent [1] | activity of β-hexosaminidase (control with sterilized water = 100%) [2]
CC(C)C[C@H](NP(=O)(O)O[C@@H]1O[C@@H](C)[C@H](O)[C@@H](O)[C@H]1O)C(=O)N[C@@H](Cc1c[nH]c2ccccc12)C(=O)O [phosphoramidon] | show elastase inhibition | –
O=c1c(O)c(-c2ccc(O)c(O)c2)oc2cc(O)cc(O)c12 [quercetin] | – | about 40%
